Like-named read-outs stand apart in the source and are kept apart here.
Experiments:
[1] = target: T1, HDAC1 (Homo sapiens, UniProt Q13547); test: In vitro HDAC1 enzymatic activity inhibition (Lys-Ac-AMC substrate); format: biochemical
T1 construct: purchased BPS Bioscience
Protocol: Determining the inhibition capability to HDAC activity through the substrate method of fluorophore 4-amino-7-coumarin coupled Ac-peptide (Lys-Ac-AMC). HDAC1 protein is purchased from BPS Bioscience Company; the reaction buffer system is a modified tris(hydroxymethyl)aminomethane (TRIS) buffer (pH7.0). All small molecule compounds are prepared and dissolved by 100% DMSO (dimethyl sulfoxide). HDAC is prepared into the buffer as per certain concentration to be served as the enzyme solution; trypsin and the fluorophore 4-amino-7-coumarin coupled Ac-peptide substrate are prepared into the buffer as per certain concentration to be served as the substrate solution. Adding the compound into the reaction wells of the 384 well plate at the designed concentration, then adding 15 μL HDAC solution into the reaction wells (adding 15 μL blank buffer into the control well 0) for incubation under ambient temperature for 15 min; then adding 10 μL substrate solution to start reaction; during the reaction, the final concentration of HDAC1 protein is 6 nM, trypsin 0.05 μM and Ac-peptide 8 μM.
(§1) Calculating the value of IC50 as per the formula: Y=background data+(top data−background data)/(1+10^((Log IC50−X)*rate of curve))
Where, Y refers to the inhibition ratio (%) and X refers to the compound concentration. […]
Analyzing the result data with the software GraphPad Prism and calculating the value of IC50 as per the formula: Y=background data+(top data−background data)/(1+10^((Log IC50−X)*rate of curve)). Where, Y refers to the inhibition ratio (%) and X refers to the compound concentration.

[2] = target: T2, PI3Kα (Homo sapiens, UniProt P42336); test: PI3Kα activity inhibition (Kinase-Glo); format: biochemical
T2 construct: purchased Invitrogen PV4788
T2 sequence (P42336 whole entry, species assumed): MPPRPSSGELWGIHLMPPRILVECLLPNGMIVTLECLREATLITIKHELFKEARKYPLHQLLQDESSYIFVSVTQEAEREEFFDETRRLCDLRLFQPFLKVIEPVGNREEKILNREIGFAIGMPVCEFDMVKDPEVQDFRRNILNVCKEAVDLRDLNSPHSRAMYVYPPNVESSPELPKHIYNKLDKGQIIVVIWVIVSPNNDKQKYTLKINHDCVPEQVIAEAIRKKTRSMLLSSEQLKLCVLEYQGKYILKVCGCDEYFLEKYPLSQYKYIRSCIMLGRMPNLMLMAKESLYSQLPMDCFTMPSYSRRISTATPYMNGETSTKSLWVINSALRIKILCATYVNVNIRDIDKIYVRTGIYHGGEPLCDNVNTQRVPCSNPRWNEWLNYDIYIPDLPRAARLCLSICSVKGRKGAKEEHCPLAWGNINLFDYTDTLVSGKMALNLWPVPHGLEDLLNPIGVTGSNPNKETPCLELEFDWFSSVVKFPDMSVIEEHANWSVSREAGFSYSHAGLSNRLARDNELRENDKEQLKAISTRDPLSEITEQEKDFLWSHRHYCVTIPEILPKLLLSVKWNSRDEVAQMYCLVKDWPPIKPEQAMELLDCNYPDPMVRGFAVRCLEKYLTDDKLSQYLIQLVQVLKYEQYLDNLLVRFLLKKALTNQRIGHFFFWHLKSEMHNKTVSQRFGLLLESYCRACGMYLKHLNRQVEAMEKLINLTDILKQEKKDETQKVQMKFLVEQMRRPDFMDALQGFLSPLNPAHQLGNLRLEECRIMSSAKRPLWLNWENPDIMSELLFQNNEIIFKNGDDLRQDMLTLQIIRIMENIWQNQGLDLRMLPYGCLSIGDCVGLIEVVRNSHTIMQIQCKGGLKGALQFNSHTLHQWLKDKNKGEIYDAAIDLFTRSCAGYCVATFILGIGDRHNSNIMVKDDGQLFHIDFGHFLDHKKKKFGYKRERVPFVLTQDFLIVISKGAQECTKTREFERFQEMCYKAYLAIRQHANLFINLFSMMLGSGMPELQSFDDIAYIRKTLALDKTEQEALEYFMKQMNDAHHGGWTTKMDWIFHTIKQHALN
T2 sequence (P27986 whole entry partner, species assumed): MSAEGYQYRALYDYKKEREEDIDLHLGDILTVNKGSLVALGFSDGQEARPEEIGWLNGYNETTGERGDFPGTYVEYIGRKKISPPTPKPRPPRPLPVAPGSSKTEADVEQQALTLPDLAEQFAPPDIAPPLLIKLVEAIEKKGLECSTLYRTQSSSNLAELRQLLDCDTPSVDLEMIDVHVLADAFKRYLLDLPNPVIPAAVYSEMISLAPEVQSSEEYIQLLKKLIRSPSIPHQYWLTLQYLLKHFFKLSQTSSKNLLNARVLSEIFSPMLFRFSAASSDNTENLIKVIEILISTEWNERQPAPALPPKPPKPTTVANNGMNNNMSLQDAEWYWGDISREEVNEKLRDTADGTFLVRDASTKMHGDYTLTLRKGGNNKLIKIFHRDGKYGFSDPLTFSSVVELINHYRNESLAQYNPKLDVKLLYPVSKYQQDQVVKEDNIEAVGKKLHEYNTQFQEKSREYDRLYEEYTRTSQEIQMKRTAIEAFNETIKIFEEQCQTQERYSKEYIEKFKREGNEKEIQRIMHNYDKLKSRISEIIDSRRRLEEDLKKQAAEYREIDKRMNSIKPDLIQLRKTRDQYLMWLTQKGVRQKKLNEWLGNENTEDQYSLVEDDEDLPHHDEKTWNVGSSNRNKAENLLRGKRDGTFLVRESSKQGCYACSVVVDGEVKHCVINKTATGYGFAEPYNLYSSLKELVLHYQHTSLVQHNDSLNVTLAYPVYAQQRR
Protocol: Detecting the inhibition capability of the compound to PI3Kα and PI3Kδ activities with Kinase-Glo (purchased from Promege Company; Catalog No.: V3771). […] The reaction system also comprises substrates as PIP2 (4, 5-diphosphoinositide, purchased from Life Technologies Company) and ATP (triphosadenine, purchased from Sigma Company). The reaction buffer system comprises 50 mM HEPES (4-hydroxyethylpiperazine ethane sulfonic acid), 3 mM MgCl2, 1 mM EGTA (ethylene glycol bis(2-amino ethylether)quadrol), 100 mM NaCl, 0.03% CHAPS (3-[3-(cholamidopropyl)dimethylamino]-1-propanesulfonic acid), 2 mM DTT (dithiothreitol). The pH value of the reaction buffer is 7.5. […] Mixing the system evenly for incubation under ambient temperature (for 1 h in PI3Kα test and for 2 h in PI3Kδ test). After incubation, adding 10 μL Kinase-Glo which has been preheated to ambient temperature into each reaction well to terminate the reaction; shaking it in dark place for 15 min after it is mixed evenly, then measuring the fluorescence intensity with a microplate reader and analyzing the result data with the software GraphPad Prism.
as §1
Where, Y refers to the inhibition ratio (%) and X refers to the compound concentration.

[3] = test system: A2780s cells (ovarian cancer); test: Cell proliferation inhibition, A2780s (MTT); format: cell-based; settings: Homo sapiens
Protocol: (§2) The tumor cell lines are purchased from American Type Culture Collection (ATCC) and cultivated to the status of logarithmic growth as per the cultural method recommended by ATCC. The cells in logarithmic phase are spread on a 96 well plate as per 2000-3000/well; as for anchorage-dependent cells, the compound should be added in the test wells at certain concentration for incubation for 96 h after cell adherence. Determining cell proliferation activities with method MTT for tumor cells representing solid tumor model and with method cck-8 for tumor cells representing hematologic tumor model, and analyzing the result data with the software GraphPad Prism.
(§3) Calculating the value of IC50 as per the formula: Y=background data+(top data−background data)/(1+10^((Log IC50−X)*rate of curve)). Where, Y refers to the inhibition ratio (%) and X refers to the compound concentration.

[4] = test system: MV4-11 cells (acute myeloid leukemia); test: Cell proliferation inhibition, MV4-11 (cck-8); format: cell-based; settings: Homo sapiens
Protocol: as §2, §3

[5] = test system: hct116 cells (colon cancer); test: Cell proliferation inhibition, hct116 (MTT); format: cell-based; settings: Homo sapiens, HCT-116
Protocol: as §2, §3

[6] = Table 1, graded, read-out: HDAC1 IC50
[7] = read-out: inhibition value IC50 to the activity of HDAC1
[8] = Table 1, graded, read-out: PI3Kα IC50
[9] = 96 h incubation, read-out: Proliferation IC50, Ovarian cancer A2780s
[10] = read-out: IC50 to proliferation of A2780s cells
[11] = 96 h incubation, read-out: Proliferation IC50, Acute myeloid leukemia MV4-11
[12] = read-out: IC50 to proliferation of MV4-11 cells
[13] = 96 h incubation, read-out: Proliferation IC50, Colon cancer hct116
[14] = read-out: IC50 to proliferation of hct116 cells

T1 sequence (Q13547 whole entry, species assumed): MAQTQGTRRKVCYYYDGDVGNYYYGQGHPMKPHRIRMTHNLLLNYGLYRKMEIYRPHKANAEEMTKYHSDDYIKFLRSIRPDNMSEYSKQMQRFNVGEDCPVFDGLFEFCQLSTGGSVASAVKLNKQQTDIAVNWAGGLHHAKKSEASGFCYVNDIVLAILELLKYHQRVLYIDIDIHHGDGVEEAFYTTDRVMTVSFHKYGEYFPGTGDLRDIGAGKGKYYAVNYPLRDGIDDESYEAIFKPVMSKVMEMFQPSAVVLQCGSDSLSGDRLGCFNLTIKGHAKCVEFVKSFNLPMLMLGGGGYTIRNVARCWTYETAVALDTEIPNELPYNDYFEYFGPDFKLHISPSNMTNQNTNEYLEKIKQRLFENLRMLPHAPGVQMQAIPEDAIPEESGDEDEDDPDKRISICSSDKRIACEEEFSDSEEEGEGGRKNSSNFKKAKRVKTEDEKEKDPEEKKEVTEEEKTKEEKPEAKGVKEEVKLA

SMILES	IC50 [1, 6]	IC50 [1, 7]	IC50 [2, 8]	IC50 [3, 9]	IC50 [3, 10]	IC50 [4, 11]	IC50 [4, 12]	IC50 [5, 13]	IC50 [5, 14]	IC50 ([2]; read-out: inhibition value IC50 to the activity of PI3Kα)
CN(Cc1nc2c(N3CCOCC3)nc(-c3ccc[nH]3)nc2n1C)c1ncc(C(=O)NO)cn1 [CLJ-24, 2-(((2-(1H-2-pyrrolyl)-9-methyl-6-morpholine-9H-purine-8-yl))methyl(methyl)amino)-N-hydroxyl pyrimidine-5-formamide]	< 0.001 µM	< 0.001 µM	1 to 10 µM	0.0001 to 0.01 µM	0.0001 to 0.01 µM	0.0001 to 0.01 µM	0.0001 to 0.01 µM	0.0001 to 0.01 µM	0.0001 to 0.01 µM	–
CCCCN(Cc1nc2c(N3CCOCC3)nc(-c3ccc4[nH]ncc4c3)nc2n1C)c1ncc(C(=O)NO)cn1 [CLJ-17, N-hydroxy-2-(((2-(1H-indazole-5-yl)-9-methyl-6-morpholine-9H-purine-8-yl))methyl(butyl)amino)pyrimidine-5-formamide]	0.1 to 1 µM	–	> 10 µM	> 1 µM	–	> 1 µM	–	> 1 µM	–	–
Cc1ccsc1-c1nc(N2CCOCC2)c2nc(CN(C)c3ncc(C(=O)NO)cn3)n(C)c2n1 [CLJ-19, 2-(((2-(3-methyl-2-thienyl)-9-methyl-6-morpholine-9H-purine-8-yl))methyl(methyl)amino)-N-hydroxyl pyrimidine-5-formamide]	< 0.1 µM	–	> 10 µM	0.01 to 0.1 µM	–	0.0001 to 0.01 µM	–	0.0001 to 0.01 µM	–	–
CN(Cc1nc2c(N3CCOCC3)nc(-c3cncnc3)nc2n1C)c1ncc(C(=O)NO)cn1 [CLJ-10, 2-(((2-(pyrimidine-5-yl)-9-methyl-6-morpholine-9H-purine-8-yl))methyl(methyl)amino)-N-hydroxyl pyrimidine-5-formamide]	< 0.1 µM	–	< 0.1 µM	0.1 to 1 µM	–	0.01 to 0.1 µM	–	0.01 to 0.1 µM	–	< 0.1 µM
CN(Cc1nc2c(N3CCOCC3)nc(-c3ccsc3)nc2n1C)c1ncc(C(=O)NO)cn1 [CLJ-22, 2-(((2-(3-thienyl)-9-methyl-6-morpholine-9H-purine-8-yl))methyl(methyl)amino)-N-hydroxyl pyrimidine-5-formamide]	< 0.001 µM	< 0.001 µM	> 10 µM	0.0001 to 0.01 µM	0.0001 to 0.01 µM	0.0001 to 0.01 µM	0.0001 to 0.01 µM	0.0001 to 0.01 µM	0.0001 to 0.01 µM	–
COc1ccc(-c2nc(N3CCOCC3)c3nc(CN(C)c4ncc(C(=O)NO)cn4)n(C4CCCC4)c3n2)cn1 [CLJ-4, 2-(((9-cyclopentyl-2-(6-methoxyl-3-pyridyl)-6-morpholino-9H-purine-8-yl))methyl(methyl)amino)-N-hydroxyl pyrimidine-5-formamide]	< 0.1 µM	–	1 to 10 µM	> 1 µM	–	> 1 µM	–	> 1 µM	–	–
COc1ccc(-c2nc(N3CCOCC3)c3nc(CN(C)c4ncc(C(=O)NO)cn4)n(C(C)C)c3n2)cn1 [CLJ-3, 2-(((9-isopropyl-2-(6-methoxyl-3-pyridyl)-6-morpholino-9H-purine-8-yl))methyl(methyl)amino)-N-hydroxyl pyrimidine-5-formamide]	< 0.1 µM	–	1 to 10 µM	> 1 µM	–	> 1 µM	–	> 1 µM	–	–
Cc1cscc1-c1nc(N2CCOCC2)c2nc(CN(C)c3ncc(C(=O)NO)cn3)n(C)c2n1 [CLJ-23]	< 0.1 µM	–	> 10 µM	0.0001 to 0.01 µM	0.0001 to 0.01 µM	0.0001 to 0.01 µM	0.0001 to 0.01 µM	0.0001 to 0.01 µM	0.0001 to 0.01 µM	–
CN(Cc1nc2c(N3CCOCC3)nc(-c3cccs3)nc2n1C)c1ncc(C(=O)NO)cn1 [CLJ-18, 2-(((2-(2-thienyl)-9-methyl-6-morpholine-9H-purine-8-yl))methyl(methyl)amino)-N-hydroxyl pyrimidine-5-formamide]	< 0.1 µM	–	> 10 µM	0.01 to 0.1 µM	–	0.0001 to 0.01 µM	–	0.0001 to 0.01 µM	–	–
CCCN(Cc1nc2c(N3CCOCC3)nc(-c3ccc4[nH]ncc4c3)nc2n1C)c1ncc(C(=O)NO)cn1 [CLJ-16, N-hydroxy-2-(((2-(1H-indazole-5-yl)-9-methyl-6-morpholine-9H-purine-8-yl))methyl(propyl)amino)pyrimidine-5-formamide]	0.1 to 1 µM	–	> 10 µM	> 1 µM	–	> 1 µM	–	> 1 µM	–	–
CN(Cc1nc2c(N3CCOCC3)nc(-c3ccc(N)nc3)nc2n1C)c1ncc(C(=O)NO)cn1 [CLJ-7, 2-(((2-(p-amino-3-pyridyl)-9-methyl-6-morpholine-9H-purine-8-yl))methyl(methyl)amino)-N-hydroxyl pyrimidine-5-formamide]	< 0.1 µM	–	> 10 µM	0.01 to 0.1 µM	–	0.0001 to 0.01 µM	< 0.01 µM	0.1 to 1 µM	> 0.1 µM	–

Results, then the molecule that gave them:

IC50 [1, 6]	IC50 [1, 7]	IC50 [2, 8]	IC50 [3, 9]	IC50 [3, 10]	IC50 [4, 11]	IC50 [4, 12]	IC50 [5, 13]	IC50 [5, 14]	IC50 ([2]; read-out: inhibition value IC50 to the activity of PI3Kα)	SMILES
< 0.1 µM	–	> 10 µM	0.1 to 1 µM	–	0.01 to 0.1 µM	–	0.1 to 1 µM	–	–	CN(Cc1nc2c(N3CCOCC3)nc(-c3cc(C(F)(F)F)cc(C(F)(F)F)c3)nc2n1C)c1ncc(C(=O)NO)cn1 [CLJ-56]
< 0.1 µM	–	> 10 µM	0.01 to 0.1 µM	–	0.01 to 0.1 µM	–	0.01 to 0.1 µM	–	–	CN(Cc1nc2c(N3CCOCC3)nc(Cl)nc2n1C)c1ncc(C(=O)NO)cn1 [CLJ-68]
< 0.1 µM	–	> 10 µM	0.01 to 0.1 µM	–	0.01 to 0.1 µM	–	0.1 to 1 µM	–	–	CC(C)=CCN(CC=C(C)C)c1ccc(-c2nc(N3CCOCC3)c3nc(CN(C)c4ncc(C(=O)NO)cn4)n(C)c3n2)cc1 [CLJ-49]
0.1 to 1 µM	–	> 10 µM	> 1 µM	–	> 1 µM	–	> 1 µM	–	–	COc1ccc(-c2nc(N3CCOCC3)c3nc(CN(C)c4ncc(C(=O)NO)cn4)n(C4CCCC4)c3n2)cc1 [CLJ-32, 2-(((9-cyclopentyl-2(4-methoxyphenyl)-6-morpholine-9H-purine-8-yl)methyl)(methyl)amino)-N-hydroxyl pyrimidine-5-formamide]
< 0.1 µM	–	> 10 µM	0.01 to 0.1 µM	–	0.0001 to 0.01 µM	< 0.01 µM	0.1 to 1 µM	> 0.1 µM	–	COc1ccc(C(F)(F)F)cc1-c1nc(N2CCOCC2)c2nc(CN(C)c3ncc(C(=O)NO)cn3)n(C)c2n1 [CLJ-38, 2-(((2-(2-methoxy-5-trifluoromethylphenyl)-9-methyl-6-morpholine-9H-purine-8-yl))methyl(methyl)amino)-N-hydroxyl pyrimidine-5-formamide]
